The record followed here is patent publication US7244765B2, “Guanylhydrazone salts, compositions, processes of making and methods of using” (Cytokine Pharmasciences, Inc, priority 2004, dated 2007).

Where a name gives a salt, the structure may show the parent alone.

The nature of the series: Solubility test of Semapimod salts (sonication at room temperature, filtration, HPLC against a Semapimod-4 HCl/4 H2O standard). As to conditions: for Solubility in H2O: sonicated at room temperature, Nylon syringe filter, HPLC vs standard from Semapimod-4 HCl/4 H2O. The format is physicochemical. As to the method: The product isolated as Semapimod-2 HCl/4 H2O was added to ca. 2 mL of solvents (H2O, 5% Dextrose solution, PBS, and 0.9% NaCl solution), and was sonicated at room temperature until the solid suspended in the solution. The mixture was passed through a Nylon syringe filter, and then 0.5 mL of the filtrate was diluted with MeOH before injection into the HPLC. […] For reference purpose, the solubility of Semapimod-4 HCl/4 H2O was determined according to the previous procedure.
The Semapimod salts mentioned in the above table were subjected to solubility tests using the same procedure outlined above.

In the case of `CC(=NNC(=N)N)c1cc(NC(=O)CCCCCCCCC(=O)Nc2cc(C(C)=NNC(=N)N)cc(C(C)=NNC(=N)N)c2)cc(C(C)=NNC(=N)N)c1.Cl.Cl.O.O.O.O` [Semapimod-2 HCl/4 H2O], the “Solubility in H2O” value was “ca. 9.54 mg/mL”. Besides, the “Solubility in 5% Dextrose” value (5% Dextrose solution, room temperature, HPLC vs standard) worked out at 13.44 mg/mL.
For `C/C(=N\NC(=N)N)c1cc(NC(=O)CCCCCCCCC(=O)Nc2cc(/C(C)=N/NC(=N)N)cc(/C(C)=N/NC(=N)N)c2)cc(/C(C)=N/NC(=N)N)c1` [Semapimod-4 HCl/4 H2O, reference compound], the “Solubility in H2O” value came to 14.15 mg/mL.
